Inconclusive results and toxic doses are left out. The calls were made as follows: active = survival T/C of 150% or more; inactive = T/C below 125% in these data.
Test system: CD2F1 mice, L1210 leukemia ip, survival T/C
Assay: NCI In Vivo Anticancer Drug Screen. Data for tumor model L1210 Leukemia (intraperitoneal) in CD2F1 (CDF1) mice
Conditions: higher = longer survival
Outline: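 Ratio T/C, where T is the treated-group value and C the vehicle-dosed control value, from mice implanted with a transplantable tumor.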

[1] = endpoint: mean survival time, dose: 100.0 mg/kg/injection, schedule: Q04DX003 (ip), vehicle: saline with Tween-80
[2] = endpoint: mean survival time, dose: 200.0 mg/kg/injection, schedule: Q04DX003 (ip), vehicle: saline with Tween-80
[3] = endpoint: mean survival time, dose: 400.0 mg/kg/injection, schedule: Q04DX003 (ip), vehicle: saline with Tween-80
[4] = endpoint: mean survival time, dose: 100.0 mg/kg/injection, schedule: Q01DX001 (ip), vehicle: saline with Tween-80
[5] = endpoint: mean survival time, dose: 200.0 mg/kg/injection, schedule: Q01DX001 (ip), vehicle: saline with Tween-80
[6] = endpoint: mean survival time, dose: 100.0 mg/kg/injection, schedule: Q04DX002 (ip), vehicle: saline with Tween-80
[7] = endpoint: mean survival time, dose: 100.0 mg/kg/injection, schedule: Q01DX009 (ip), vehicle: saline with Tween-80
[8] = endpoint: mean survival time, dose: 200.0 mg/kg/injection, schedule: Q01DX009 (ip), vehicle: saline with Tween-80
[9] = endpoint: mean survival time, dose: 400.0 mg/kg/injection, schedule: Q01DX001 (ip), vehicle: saline with Tween-80

Measured: T/C

NP(=O)(OC(c1ccccc1)C12CC3CC(CC(C3)C1)C2)N(CCCl)CCCl (stereo not given)
inactive: endpoint: mean survival time, dose: 62.5 mg/kg/injection, schedule: Q01DX001 (ip), vehicle: other 92 % of control | endpoint: mean survival time, dose: 125.0 mg/kg/injection, schedule: Q01DX001 (ip), vehicle: other 97 % of control | endpoint: mean survival time, dose: 250.0 mg/kg/injection, schedule: Q01DX001 (ip), vehicle: other 102 % of control | endpoint: mean survival time, dose: 500.0 mg/kg/injection, schedule: Q01DX001 (ip), vehicle: other 105 % of control

CCCCC1(CC)NC(=O)NC1=O (stereo not given)
inactive: endpoint: mean survival time, dose: 100.0 mg/kg/injection, schedule: Q01DX001 (ip), vehicle: other 92 % of control | endpoint: mean survival time, dose: 200.0 mg/kg/injection, schedule: Q01DX001 (ip), vehicle: other 92 % of control | endpoint: mean survival time, dose: 400.0 mg/kg/injection, schedule: Q01DX001 (ip), vehicle: other 87 % of control

CC(C)CC(C)OP(=S)(S)OC(C)CC(C)C.[Cd] (stereo not given)
inactive: endpoint: mean survival time, dose: 6.25 mg/kg/injection, schedule: Q04DX002 (ip), vehicle: saline 93 % of control | endpoint: mean survival time, dose: 12.5 mg/kg/injection, schedule: Q04DX002 (ip), vehicle: saline 104 % of control | endpoint: mean survival time, dose: 25.0 mg/kg/injection, schedule: Q04DX002 (ip), vehicle: saline with Tween-80 100 % of control | endpoint: mean survival time, dose: 25.0 mg/kg/injection, schedule: Q04DX002 (ip), vehicle: saline 93 % of control | endpoint: mean survival time, dose: 50.0 mg/kg/injection, schedule: Q04DX002 (ip), vehicle: saline with Tween-80 88 % of control

CCCC1=NC(C)(C)CO1
inactive: endpoint: mean survival time, dose: 100.0 mg/kg/injection, schedule: Q04DX003 (ip), vehicle: saline 92 % of control | endpoint: mean survival time, dose: 200.0 mg/kg/injection, schedule: Q04DX003 (ip), vehicle: saline 94 % of control | endpoint: mean survival time, dose: 400.0 mg/kg/injection, schedule: Q04DX003 (ip), vehicle: saline 105 % of control

S=C(NCCNC(=S)[S][Sn]([c]1ccccc1)([c]1ccccc1)[c]1ccccc1)[S][Sn]([c]1ccccc1)([c]1ccccc1)[c]1ccccc1
inactive: endpoint: mean survival time, dose: 25.0 mg/kg/injection, schedule: Q04DX003 (ip), vehicle: saline with Tween-80 88 % of control | endpoint: mean survival time, dose: 50.0 mg/kg/injection, schedule: Q04DX003 (ip), vehicle: saline with Tween-80 93 % of control | [1] 100 % of control

CC(C)CCCC(C)C1CCC2C3CC=C4CC(C(=O)O)CCC4C3CCC12C (stereo not given)
inactive: [1] 92 % of control | [2] 88 % of control | [3] 88 % of control

COC1OC(CO)C(O)C1n1cnc2c(=O)[nH]c(N)nc21 (stereo not given)
inactive: endpoint: mean survival time, dose: 50.0 mg/kg/injection, schedule: Q01DX001 (ip), vehicle: saline with Tween-80 97 % of control | [4] 95 % of control | [5] 97 % of control

N=C(N)SCc1cccc([N+](=O)[O-])c1
inactive: [6] 97 % of control

[Cl][Pt+2][Cl].[NH-]CC([NH-])c1ccc2oc3ccccc3c2c1 (stereo not given)
inactive: endpoint: median survival time, dose: 10.0 mg/kg/injection, schedule: Q04DX003 (ip), vehicle: saline 100 % of control | endpoint: median survival time, dose: 20.0 mg/kg/injection, schedule: Q04DX003 (ip), vehicle: saline 94 % of control | endpoint: median survival time, dose: 40.0 mg/kg/injection, schedule: Q04DX003 (ip), vehicle: saline 105 % of control | endpoint: median survival time, dose: 80.0 mg/kg/injection, schedule: Q04DX003 (ip), vehicle: saline with Tween-80 107 % of control | endpoint: median survival time, dose: 80.0 mg/kg/injection, schedule: Q04DX003 (ip), vehicle: saline 110 % of control

O=Cc1cc(C(=O)O)ccc1O
inactive: endpoint: mean survival time, dose: 100.0 mg/kg/injection, schedule: Q01DX001 (ip), vehicle: saline 100 % of control | endpoint: mean survival time, dose: 200.0 mg/kg/injection, schedule: Q01DX001 (ip), vehicle: saline 97 % of control | endpoint: mean survival time, dose: 400.0 mg/kg/injection, schedule: Q01DX001 (ip), vehicle: saline 94 % of control

CCCCN1C(=O)C(=O)N(c2cc(OC)ccc2OC)C1=O
inactive: endpoint: mean survival time, dose: 50.0 mg/kg/injection, schedule: Q01DX009 (ip), vehicle: saline with Tween-80 86 % of control | [7] 90 % of control | [8] 86 % of control

CC(=O)CCc1ccc(O)cc1
inactive: [7] 94 % of control | [1] 97 % of control | [8] 93 % of control | [2] 92 % of control | endpoint: mean survival time, dose: 400.0 mg/kg/injection, schedule: Q01DX009 (ip), vehicle: saline with Tween-80 94 % of control | [3] 92 % of control

Cc1c(N)nc([C@H](CC(N)=O)NC[C@H](N)C(N)=O)nc1C(=O)N[C@H](C(=O)N[C@H](C)[C@@H](O)CC(=O)N[C@H](C(=O)NC(O[C@@H]1O[C@@H](C)[C@@H](N)[C@@H](O)[C@H]1O)C(O)c1nc(-c2nc(C(=O)NCCCCN)cs2)cs1)[C@@H](C)O)[C@@H](O[C@@H]1O[C@@H](CO)[C@@H](O)[C@H](O)[C@@H]1O[C@H]1O[C@H](CO)[C@@H](O)[C@H](OC(N)=O)[C@@H]1O)c1c[nH]cn1 (stereo not given in full)
inactive: endpoint: median survival time, dose: 1.0 mg/kg/injection, schedule: Q01DX009 (ip), vehicle: saline 106 % of control | endpoint: median survival time, dose: 2.0 mg/kg/injection, schedule: Q01DX009 (ip), vehicle: saline 112 % of control | endpoint: median survival time, dose: 4.0 mg/kg/injection, schedule: Q01DX009 (ip), vehicle: saline 119 % of control | endpoint: median survival time, dose: 8.0 mg/kg/injection, schedule: Q01DX009 (ip), vehicle: saline 118 % of control | endpoint: median survival time, dose: 16.0 mg/kg/injection, schedule: Q01DX009 (ip), vehicle: saline 120 % of control | endpoint: median survival time, dose: 32.0 mg/kg/injection, schedule: Q01DX009 (ip), vehicle: saline 108 % of control

COc1ccc2nc3c(Cl)cccc3c(Oc3ccccc3)c2c1
inactive: [4] 94 % of control | [5] 92 % of control | [9] 101 % of control

[Cl][Pt+2][Cl].[NH-]CC([NH-])CN
inactive: endpoint: mean survival time, dose: 0.39 mg/kg/injection, schedule: Q04DX003 (ip), vehicle: saline 89 % of control | endpoint: mean survival time, dose: 0.78 mg/kg/injection, schedule: Q04DX003 (ip), vehicle: saline 97 % of control | endpoint: mean survival time, dose: 1.56 mg/kg/injection, schedule: Q04DX003 (ip), vehicle: saline 103 % of control | endpoint: mean survival time, dose: 3.12 mg/kg/injection, schedule: Q04DX003 (ip), vehicle: saline 103 % of control | endpoint: mean survival time, dose: 6.25 mg/kg/injection, schedule: Q04DX003 (ip), vehicle: saline 111 % of control | endpoint: mean survival time, dose: 12.5 mg/kg/injection, schedule: Q04DX003 (ip), vehicle: saline 109 % of control

CC1(C)C(C(=O)/C=C/c2ccccc2)C1[N+](=O)[O-] (stereo not given)
inactive: endpoint: mean survival time, dose: 100.0 mg/kg/injection, schedule: Q04DX002 (ip), vehicle: other 97 % of control | endpoint: mean survival time, dose: 200.0 mg/kg/injection, schedule: Q04DX002 (ip), vehicle: other 97 % of control | endpoint: mean survival time, dose: 400.0 mg/kg/injection, schedule: Q04DX002 (ip), vehicle: other 97 % of control

CCCCCCCCCCCCCCCCCCOc1ccc(Cl)cc1
inactive: [6] 90 % of control | endpoint: mean survival time, dose: 200.0 mg/kg/injection, schedule: Q04DX002 (ip), vehicle: saline with Tween-80 93 % of control

CC(NCCN1CC1)C1CC1 (stereo not given)
inactive: endpoint: mean survival time, dose: 17.6 mg/kg/injection, schedule: Q01DX009 (ip), vehicle: saline 94 % of control | endpoint: mean survival time, dose: 26.4 mg/kg/injection, schedule: Q01DX009 (ip), vehicle: saline 100 % of control | endpoint: mean survival time, dose: 40.0 mg/kg/injection, schedule: Q01DX009 (ip), vehicle: saline 105 % of control | endpoint: mean survival time, dose: 60.0 mg/kg/injection, schedule: Q01DX009 (ip), vehicle: saline 117 % of control

COC(=O)CNC(=O)C(Cc1ccc(OCc2ccccc2)cc1)NC(=O)OC(C)(C)C (stereo not given)
inactive: [1] 91 % of control | [2] 91 % of control | [3] 95 % of control

O=C1CCCCCCCCC1O (stereo not given)
inactive: [1] 102 % of control | [2] 103 % of control | [3] 96 % of control

c1ccc(-c2ccccc2N=C2N=NN=N2)cc1
inactive: [4] 96 % of control | [1] 103 % of control | [5] 114 % of control | [2] 93 % of control | [9] 94 % of control | [3] 97 % of control

O=C(Cl)N(c1ccccc1)c1ccccc1
inactive: [4] 91 % of control | [5] 100 % of control

Source: PubChem BioAssay AID256 (DTP/NCI, 2004)
